ChEMBL document CHEMBL3792284, “Synthesis of triazoloquinazolinone based compounds as tubulin polymerization inhibitors and vascular disrupting agents” (Eur J Med Chem, 2016)

Legend:
[1] = molecular target: Tubulin (Bos taurus, UniProt Q6B856+Q862L2+Q862F3); assay: Inhibition of bovine tubulin polymerization after 1 hr by fluorescence spectrometry; assay type: protein assay
[2] = system: HT-29; assay: Antiproliferative activity against human HT-29 cells at 10 uM after 72 hrs by MTS assay; assay type: functional; details: HT-29, 72 h
[3] = system: HUVEC; assay: Inhibition of cell invasion of HUVEC at 1 uM after 24 hrs by crystal violet staining based Boyden chamber assay; assay type: functional; details: Homo sapiens
[4] = Growth inhibition of human HL-60(TB) cells at 10 uM after 48 hrs by sulforhodamine B assay; assay type: functional; details: HL-60, 48 h, read-out: GI
[5] = system: MDA-MB-468; assay: Growth inhibition of human MDA-MB-468 cells after 48 hrs by sulforhodamine B assay; assay type: functional; details: MDA-MB-468, 48 h
[6] = Growth inhibition of human HCT15 cells at 10 uM after 48 hrs by sulforhodamine B assay; assay type: functional; details: HCT-15, 48 h, read-out: GI
[7] = Growth inhibition of human OVCAR3 cells at 10 uM after 48 hrs by sulforhodamine B assay; assay type: functional; details: OVCAR-3, 48 h, read-out: GI
[8] = system: SR; assay: Growth inhibition of human SR cells after 48 hrs by sulforhodamine B assay; assay type: functional
[9] = Growth inhibition of human SF295 cells after 48 hrs by sulforhodamine B assay; assay type: functional; details: SF-295, 48 h
[10] = system: A498; assay: Growth inhibition of human A498 cells at 10 uM after 48 hrs by sulforhodamine B assay; assay type: functional; details: A498, 48 h, read-out: GI
[11] = system: A498; assay: Growth inhibition of human A498 cells after 48 hrs by sulforhodamine B assay; assay type: functional; details: A498, 48 h
[12] = system: MDA-MB-435; assay: Cytotoxicity against human MDA-MB-435 cells assessed as cell growth at 10 uM after 48 hrs by sulforhodamine B assay; assay type: functional; details: MDA-MB-435, 48 h, read-out: Activity
[13] = Growth inhibition of human HOP62 cells at 10 uM after 48 hrs by sulforhodamine B assay; assay type: functional; details: HOP-62, 48 h, read-out: GI
[14] = Growth inhibition of human HCT15 cells after 48 hrs by sulforhodamine B assay; assay type: functional; details: HCT-15, 48 h
[15] = system: HT-29; assay: Growth inhibition of human HT-29 cells at 10 uM after 48 hrs by sulforhodamine B assay; assay type: functional; details: HT-29, 48 h, read-out: GI
[16] = system: MDA-MB-435; assay: Growth inhibition of human MDA-MB-435 cells after 48 hrs by sulforhodamine B assay; assay type: functional; details: MDA-MB-435, 48 h
[17] = Growth inhibition of human HCT116 cells at 10 uM after 48 hrs by sulforhodamine B assay; assay type: functional; details: HCT-116, 48 h, read-out: GI
[18] = Growth inhibition of human DU145 cells after 48 hrs by sulforhodamine B assay; assay type: functional; details: DU-145, 48 h
[19] = system: U-251; assay: Growth inhibition of human U251 cells after 48 hrs by sulforhodamine B assay; assay type: functional; details: U-251, 48 h
[20] = system: SK-MEL-5; assay: Growth inhibition of human SK-MEL-5 cells at 10 uM after 48 hrs by sulforhodamine B assay; assay type: functional; details: SK-MEL-5, 48 h, read-out: GI
[21] = Growth inhibition of human SNB75 cells at 10 uM after 48 hrs by sulforhodamine B assay; assay type: functional; details: SNB-75, 48 h, read-out: GI
[22] = Growth inhibition of human OVCAR3 cells after 48 hrs by sulforhodamine B assay; assay type: functional; details: OVCAR-3, 48 h
[23] = Growth inhibition of human Caki1 cells after 48 hrs by sulforhodamine B assay; assay type: functional; details: CAKI-1, 48 h
[24] = Growth inhibition of human Caki1 cells at 10 uM after 48 hrs by sulforhodamine B assay; assay type: functional; details: CAKI-1, 48 h, read-out: GI
[25] = Growth inhibition of human NCI-ADR-RES cells at 10 uM after 48 hrs by sulforhodamine B assay; assay type: functional; details: read-out: GI
[26] = system: MDA-MB-468; assay: Growth inhibition of human MDA-MB-468 cells at 10 uM after 48 hrs by sulforhodamine B assay; assay type: functional; details: MDA-MB-468, 48 h, read-out: GI
[27] = Cytotoxicity against human COLO205 cells assessed as cell growth at 10 uM after 48 hrs by sulforhodamine B assay; assay type: functional; details: COLO 205, 48 h, read-out: Activity
[28] = Growth inhibition of human COLO205 cells after 48 hrs by sulforhodamine B assay; assay type: functional; details: COLO 205, 48 h
[29] = Growth inhibition of human NCI-ADR-RES cells after 48 hrs by sulforhodamine B assay; assay type: functional
[30] = Cytotoxicity against human HL-60(TB) cells assessed as cell growth at 10 uM after 48 hrs by sulforhodamine B assay; assay type: functional; details: HL-60, 48 h, read-out: Activity
[31] = system: K562; assay: Growth inhibition of human K562 cells at 10 uM after 48 hrs by sulforhodamine B assay; assay type: functional; details: K562, 48 h, read-out: GI
[32] = system: MCF7; assay: Growth inhibition of human MCF7 cells at 10 uM after 48 hrs by sulforhodamine B assay; assay type: functional; details: MCF7, 48 h, read-out: GI
[33] = system: MCF7; assay: Growth inhibition of human MCF7 cells after 48 hrs by sulforhodamine B assay; assay type: functional; details: MCF7, 48 h
[34] = Growth inhibition of human HCT116 cells after 48 hrs by sulforhodamine B assay; assay type: functional; details: HCT-116, 48 h
[35] = Growth inhibition of human PC3 cells at 10 uM after 48 hrs by sulforhodamine B assay; assay type: functional; details: PC-3, 48 h, read-out: GI
[36] = system: HT-29; assay: Growth inhibition of human HT-29 cells after 48 hrs by sulforhodamine B assay; assay type: functional; details: HT-29, 48 h
[37] = system: SK-MEL-5; assay: Growth inhibition of human SK-MEL-5 cells after 48 hrs by sulforhodamine B assay; assay type: functional; details: SK-MEL-5, 48 h
[38] = Growth inhibition of human COLO205 cells at 10 uM after 48 hrs by sulforhodamine B assay; assay type: functional; details: COLO 205, 48 h, read-out: GI
[39] = system: U-251; assay: Growth inhibition of human U251 cells at 10 uM after 48 hrs by sulforhodamine B assay; assay type: functional; details: U-251, 48 h, read-out: GI
[40] = Growth inhibition of human SF295 cells at 10 uM after 48 hrs by sulforhodamine B assay; assay type: functional; details: SF-295, 48 h, read-out: GI
[41] = system: K562; assay: Growth inhibition of human K562 cells after 48 hrs by sulforhodamine B assay; assay type: functional; details: K562, 48 h
[42] = Growth inhibition of human DU145 cells at 10 uM after 48 hrs by sulforhodamine B assay; assay type: functional; details: DU-145, 48 h, read-out: GI
[43] = system: NCI-H522; assay: Growth inhibition of human NCI-H522 cells after 48 hrs by sulforhodamine B assay; assay type: functional; details: NCI-H522, 48 h
[44] = system: SR; assay: Growth inhibition of human SR cells at 10 uM after 48 hrs by sulforhodamine B assay; assay type: functional; details: read-out: GI
[45] = system: MDA-MB-435; assay: Growth inhibition of human MDA-MB-435 cells at 10 uM after 48 hrs by sulforhodamine B assay; assay type: functional; details: MDA-MB-435, 48 h, read-out: GI
[46] = Growth inhibition of human HOP62 cells after 48 hrs by sulforhodamine B assay; assay type: functional; details: HOP-62, 48 h
[47] = system: A549; assay: Growth inhibition of human A549/ATCC cells at 10 uM after 48 hrs by sulforhodamine B assay; assay type: functional; details: A549, 48 h, read-out: GI
[48] = system: A549; assay: Growth inhibition of human A549/ATCC cells after 48 hrs by sulforhodamine B assay; assay type: functional; details: A549, 48 h
[49] = Growth inhibition of human PC3 cells after 48 hrs by sulforhodamine B assay; assay type: functional; details: PC-3, 48 h
[50] = system: NCI-H522; assay: Growth inhibition of human NCI-H522 cells at 10 uM after 48 hrs by sulforhodamine B assay; assay type: functional; details: NCI-H522, 48 h, read-out: GI

SMILES: COc1cc(-c2nnc3n(C)c(=O)c4ccccc4n23)ccc1O
- IC50 [1]: > 10000 nM
- inhibition at 10 µM [2]: 0%

SMILES: COc1ccc(-c2nnc3[nH]c(=O)c4ccccc4n23)cc1OC
- IC50 [1]: > 10000 nM
- inhibition at 10 µM [2]: 0%

SMILES: COc1cc2c(Oc3ccc4[nH]c(C)cc4c3F)ncnc2cc1OCCCN1CCCC1 [CEDIRANIB]
- inhibition at 1 µM [3]: 74%

SMILES: COc1ccc(-c2nnc3[nH]c(=O)c4ccccc4n23)cc1O
- IC50 [1]: 4260 nM
- inhibition at 10 µM [2]: 10%

SMILES: COc1ccc(-c2nnc3n(C)c(=O)c4ccccc4n23)cc1
- IC50 [1]: > 10000 nM
- inhibition at 10 µM [2]: 2%

SMILES: COc1ccc(-c2nnc3n(C)c(=O)c4ccccc4n23)cc1N
- inhibition of growth at 10 µM [4]: 100%
- GI50 [5]: 2330 nM
- inhibition of growth at 10 µM [6]: 78%
- inhibition of growth at 10 µM [7]: 92%
- IC50 [1]: > 10000 nM
- GI50 [8]: 34 nM
- GI50 [9]: 50 nM
- inhibition of growth at 10 µM [10]: 80%
- GI50 [11]: 2840 nM
- growth at 10 µM [12]: 44%
- inhibition of growth at 10 µM [13]: 83%
- GI50 [14]: 50 nM
- inhibition of growth at 10 µM [15]: 95%
- GI50 [16]: 23 nM
- inhibition at 10 µM [2]: 95%
- inhibition of growth at 10 µM [17]: 76%
- GI50 [18]: 3090 nM
- GI50 [19]: 1630 nM
- inhibition of growth at 10 µM [20]: 86%
- inhibition of growth at 10 µM [21]: 81%
- GI50 [22]: 47 nM
- GI50 [23]: 1950 nM
- inhibition of growth at 10 µM [24]: 65%
- inhibition of growth at 10 µM [25]: 83%
- inhibition of growth at 10 µM [26]: 89%
- growth at 10 µM [27]: 18%
- GI50 [28]: 47 nM
- GI50 [29]: 65 nM
- growth at 10 µM [30]: 11%
- inhibition of growth at 10 µM [31]: 92%
- inhibition of growth at 10 µM [32]: 85%
- GI50 [33]: 43 nM
- GI50 [34]: 57 nM
- inhibition of growth at 10 µM [35]: 67%
- GI50 [36]: 43 nM
- GI50 [37]: 60 nM
- inhibition of growth at 10 µM [38]: 100%
- inhibition of growth at 10 µM [39]: 81%
- inhibition of growth at 10 µM [40]: 98%
- GI50 [41]: 39 nM
- inhibition of growth at 10 µM [42]: 79%
- GI50 [43]: 31 nM
- inhibition of growth at 10 µM [44]: 89%
- inhibition of growth at 10 µM [45]: 100%
- GI50 [46]: 48 nM
- inhibition of growth at 10 µM [47]: 72%
- GI50 [48]: 1470 nM
- GI50 [49]: 2650 nM
- inhibition of growth at 10 µM [50]: 91%

SMILES: COc1cc(-c2nnc3n(C)c(=O)c4ccccc4n23)cc(OC)c1OC
- IC50 [1]: > 10000 nM
- inhibition at 10 µM [2]: 0%
